Assays:
[1] = tested on: patients with postmenopausal osteoporosis; assay: Suppression of biochemical markers of bone turnover in the same trial; type: in vivo, human; settings: throughout the 6 and 12 month dosing intervals
Description: (§1) This was a dose and dose regimen-finding 12 month trial of iv zoledronic acid in patients with postmenopausal osteoporosis. Three hundred and fifty one patients were randomized to six study arms. Patients who had recent exposure to bone active drugs, e.g. bisphosphonates, estrogen, calcitonin, raloxifene, or a history of metabolic bone diseases were excluded. All patients were evaluated at baseline and in 3-monthly visits. Zoledronic acid or placebo was administered as a bolus iv injection into a peripheral vein over 5 minutes at every visit.
Additionally, the degree and duration of suppression of biochemical markers of bone turnover—parathyroid hormone (PTH), bone specific alkaline phosphatase (BSAP), serum C-telopeptide (CTX), serum osteocalcin, urine N-telopeptide (NTX)/creatinine ratio, urine deoxypyridinoline (d-pyd)/creatinine ratio, urine pyridinoline (pyd)/creatinine ratio—was obtained every 3 months and measured in a central laboratory.
(§2) • Placebo • 0.25 mg zoledronic acid every 3 months • 0.5 mg zoledronic acid every 3 months • 1.0 mg zoledronic acid every 3 months • 2.0 mg zoledronic acid every 6 months • 4.0 mg zoledronic acid every 12 months

[2] = tested on: patients with postmenopausal osteoporosis; assay: 12 month dose-ranging trial of iv zoledronic acid: percent change from baseline in bone mineral density (DEXA) versus placebo; type: in vivo, human; settings: for Difference versus placebo for percent change from baseline in bone mineral density of the lumbar spine; postero anterior (L1-L4): at 12 months, ITT population
Description: “A Multinational, Randomized, Double-Blind, Placebo-Controlled, Parallel-Group, Dose-Ranging, Safety and Efficacy Trial With Intravenous Bolus Injections of Zoledronate In the Treatment of Postmenopausal Osteoporosis”
as §1
Efficacy was ascertained by measurement of percent change from baseline in bone mineral density (BMD) measured by dual energy X-ray absorptiometry (DEXA) as compared to placebo, at 6, 9, and 12 months.
as §2

## O=P(O)(O)C(O)(Cn1ccnc1)P(=O)(O)O [zoledronate, 2-(imidazol-1yl)-1-hydroxyethane-1,1-diphosphonic acid]
[1]
  Suppression of biochemical markers of bone formation and bone resorption: suppression of bone turnover to the pre-menopausal level
[2]; 1 × 4.0 mg (4.0 mg iv every 12 months)
  Difference versus placebo for percent change from baseline in bone mineral density of the lumbar spine; postero anterior (L1-L4): 4.6%
[2]; 2 × 2.0 mg (2.0 mg iv every 6 months)
  Difference versus placebo for percent change from baseline in bone mineral density of the lumbar spine; postero anterior (L1-L4): 4.2%
[2]; 4 × 0.25 mg (0.25 mg iv every 3 months)
  Difference versus placebo for percent change from baseline in bone mineral density of the lumbar spine; postero anterior (L1-L4): 5.1%
[2]; 4 × 0.5 mg (0.5 mg iv every 3 months)
  Difference versus placebo for percent change from baseline in bone mineral density of the lumbar spine; postero anterior (L1-L4): 4.9%
[2]; 4 × 1.0 mg (1.0 mg iv every 3 months)
  Difference versus placebo for percent change from baseline in bone mineral density of the lumbar spine; postero anterior (L1-L4): 4.5%
[2]; all treatment arms, 12 month results
  percent change from baseline in BMD compared with placebo: significantly (p<0.001) greater than placebo
[2]; at the spine, hip, distal radius, and total body
  Bone mineral density compared to placebo: increased compared to placebo
[2]; dose administration as infrequent as every 6 or 12 months
  bone mass increase (BMD data): statistically significant and medically relevant bone mass increase
